{"source": "patent US10973777B2", "about": "“Methods for treatment of interstitial cystitis” (Panag Pharma Inc., priority 2017, dated 2021)", "key": {"[1]": {"tested_on": "NGF-induced bladder hyper-reflexia", "conditions": "rats; systemic administration; cited from earlier work"}, "LPS-induced cystitis [2]": {"tested_on": "LPS-induced cystitis", "assay": "Electronic von Frey aesthesiometry, Example 5", "assay_type": "in vivo, female BALB/c mice", "conditions": "oral BCP 100 mg/kg 60 minutes prior to LPS; T0 vs T1; FIG. 26", "protocol": "(§1) Studies were carried out to investigate the anesthetic effect of oral administration of Beta-C. Animals and local bladder inflammation model were as described hereinabove in Example 2. The groups were as follows:\n(§2) In the oral gavage groups, the mice were treated with 100 mg/kg beta-C by gavage. In the LPS group administered oral beta-C, the administration was 60 minutes prior to LPS exposure. LPS (local) was provided as detailed hereinabove in Example 2.\nThis was a quantified pain assessment that measures the amount of force applied in grams, before an animal reacts (e.g. withdraws) to the noxious stimulus. This quantification allows for accurate detection of pain relief effectiveness of a treatment. Healthy animals were scored before any treatments or cystitis induction to set an individual baseline for each specimen. The animals were also scored after the cystitis was induced and the treatment effect could be measured. Each individual animal was compared to itself before the induction, as well as a summarized group comparison was performed."}, "LPS-induced cystitis [3]": {"tested_on": "LPS-induced cystitis", "assay": "Pain assessment scoring (behavioural), Example 5", "assay_type": "in vivo, female BALB/c mice", "protocol": "as §1, §2\nHealthy animals were scored behaviourally to set an individual baseline for each specimen. Animals were then anesthetized with isoflurane and given LPS instillation to induce cystitis-like conditions in bladder. After the induction, animals were then woken up and allowed to normally explore/feed themselves in their cage under observation. Changes in behaviour and appearance (i.e. breathing rate, posture, motor activity, eye opening) were then scored again. Each behavioural parameter received a possible maximum score of 10, totaling to a possible maximum of 40. The minimum score possible is a 0, which implies that the parameter is unaffected as a pre-existing condition. Breathing Rate—each decrease in cycle warrants an increase in score. Opening of the eyes—0 complete opening, 5 half opening, 10 fully closed, and 2 and 7 are intermediate positions. Posture—no change is 0, full rounded back OR limp is 10. Intermediate postures gain intermediate scores. Motor activity—activity (exploring, moving, grooming) within 20 seconds. e.g. no movement for 10 seconds (=50%)=5 points; no movement for 2 seconds (=10%)=1 point. The scoring system is based on that reported by Eschalier et al.^37 but has the additional parameter of motor activity."}, "[4]": {"tested_on": "inflammatory and neuropathic pain", "conditions": "mouse models of inflammatory and neuropathic pain; cited from earlier work"}, "LPS-induced cystitis [5]": {"tested_on": "LPS-induced cystitis", "assay": "Systemic (endotoxemia-induced) bladder inflammation model, intravital microscopy of the bladder", "conditions": "LPS 10 mg/kg i.p."}, "[6]": {"conditions": "compared with procaine; cited from earlier work"}, "LPS-induced cystitis [7]": {"tested_on": "LPS-induced cystitis", "assay": "Local bladder inflammation model, Example 2 (instillation), intravital microscopy of the bladder", "assay_type": "in vivo, female BALB/c mice", "conditions": "LPS 150 μg/ml instilled 30 min, then instillation, BCP 100 mg/kg; for leukocyte rolling in bladder venules: FIG. 10; for leukocyte adhesion in bladder venules: FIGS. 9 and 12; for capillary perfusion quantified through functional capillary density (FCD): FIGS. 11 and 13"}, "LPS-induced cystitis [8]": {"tested_on": "LPS-induced cystitis", "assay": "Local bladder inflammation model, Example 4 (oral Beta-C alone or with MSM), intravital microscopy", "assay_type": "in vivo, female BALB/c mice", "conditions": "for leukocyte adhesion in bladder venules: FIGS. 14, 16; for capillary perfusion quantified through functional capillary density (FCD): FIGS. 15, 17", "protocol": "Laparotomy was then performed to gain access to the bladder and to have a visual confirmation of bladder instillation success. […] This was then followed by an insertion of a P10 catheter into the urethra. […] LPS solution (150 μg/ml) was slowly instilled and held in the bladder for 30 minutes. The animal was then rotated on the heating pad at a halfway point to ensure that all sides of bladder were equally exposed to LPS.\nAnimals and local bladder inflammation model were as described hereinabove in Example 2. The groups were as follows:\nIn the oral gavage groups, the mice were treated with 100 mg/kg beta-C or 100 mg/kg beta-C in 100 mg/kg methylsulfonylmethane (MSM) by gavage. In groups other than the Healthy Animal Control administered oral beta-C, the administration was 60 minutes prior to LPS exposure. LPS (local) was provided as detailed hereinabove in Example 2. Intravesical MSM was provided similar to as detailed hereinabove in Example 1 for DMSO. Leukocyte adherence, leukocyte rolling and functional capillary density were measured using the techniques as described hereinabove in Example 2. Results were assessed using the statistical methods described hereinabove in Example 2."}, "severe IC": {"tested_on": "severe IC", "conditions": "patients with severe IC; intravesical DMSO; cited from earlier work"}, "LPS-induced cystitis [9]": {"tested_on": "LPS-induced cystitis", "assay": "Local (endotoxin-induced) bladder inflammation model, Example 1, intravital microscopy of the bladder", "conditions": "LPS 100 μg/ml instilled 30 min, then drug instillation (DMSO 40%)"}, "interstitial cystitis [10]": {"tested_on": "interstitial cystitis", "conditions": "clinical case studies for IC; cited from earlier work"}, "interstitial cystitis [11]": {"tested_on": "interstitial cystitis", "conditions": "patients with IC; oral therapy; cited from earlier work"}, "[12]": {"conditions": "healthy animals (no LPS) administered oral Beta-C 100 mg/kg"}}, "note": "“Also recorded” adds a separate entry of the source."}
{"molecule": "CCCCC/C=C\\C/C=C\\C/C=C\\C/C=C\\CCCC(=O)NCCO", "note": "[AEA, N-arachidonoylethanolamine]", "values": [{"measurement": "NGF-induced bladder hyper-reflexia and reduction of micturition threshold", "setting": "[1]", "result": "attenuated"}]}
{"molecule": "C=C1CC/C=C(\\C)CC[C@@H]2[C@@H]1CC2(C)C", "note": "[Beta-C, beta-caryophyllene]", "values": [{"measurement": "amount of force applied via electronic von Frey aesthesiometer before a response (withdrawal threshold)", "setting": "LPS-induced cystitis [2]", "result": "significant improvement in withdrawal threshold"}, {"measurement": "behavioural results for eye opening", "setting": "LPS-induced cystitis [3]; oral BCP 100 mg/kg 60 minutes prior to LPS, vs untreated LPS, FIG. 22", "result": "significant improvement"}, {"measurement": "behavioural results for motor activity", "setting": "LPS-induced cystitis [3]; oral BCP 100 mg/kg 60 minutes prior to LPS, vs untreated LPS, FIG. 23", "result": "Significant improvements"}, {"measurement": "behavioural results for posture", "setting": "LPS-induced cystitis [3]; oral BCP 100 mg/kg 60 minutes prior to LPS, vs untreated LPS, FIG. 24", "result": "Significant improvements"}, {"measurement": "total composite score of behavioural results (behavioural pain score)", "setting": "LPS-induced cystitis [3]; oral BCP 100 mg/kg 60 minutes prior to LPS, vs untreated LPS, FIG. 25", "result": "significant reduction in behavioural pain score"}, {"measurement": "behavioural results for breathing rate", "setting": "LPS-induced cystitis [3]; oral Beta-C 100 mg/kg 60 minutes prior to LPS, T1 vs untreated LPS, FIG. 21", "result": "significant reduction in breathing rate"}, {"measurement": "analgesic and anti-inflammatory effects", "setting": "[4]", "result": "analgesic and anti-inflammatory effects"}, {"measurement": "leukocyte adhesion in bladder venules", "setting": "LPS-induced cystitis [5]; 100 mg/kg Beta-C injected 15 min after LPS, IVM two hours after treatment, vs LPS, FIG. 1", "result": "significantly decreased the number of adhering leukocytes"}, {"measurement": "capillary perfusion quantified through functional capillary density (FCD)", "setting": "LPS-induced cystitis [5]; 100 mg/kg Beta-C injected, FIG. 3", "result": "restored perfusion to levels observed in healthy control animals"}, {"measurement": "leukocyte rolling in bladder venules", "setting": "LPS-induced cystitis [5]; 100 mg/kg Beta-C injected, vs endotoxemia group, FIG. 2", "result": "did not significantly alter the number of rolling leukocytes"}, {"measurement": "local anesthetic actions", "setting": "[6]", "result": "dose-dependent local anesthetic actions comparable to procaine"}, {"measurement": "leukocyte rolling in bladder venules", "setting": "LPS-induced cystitis [7]", "result": "restored the level of leukocyte levels to that of control animals"}, {"measurement": "leukocyte adhesion in bladder venules", "setting": "LPS-induced cystitis [7]", "result": "significantly decreased the number of adhering leukocytes back to the level of healthy control animals"}, {"measurement": "leukocyte adhesion in bladder venules", "setting": "LPS-induced cystitis [7]; listed as BCP", "result": "decrease in leukocyte adherence comparable to groups instilled with various levels of DMSO"}, {"measurement": "capillary perfusion quantified through functional capillary density (FCD)", "setting": "LPS-induced cystitis [7]", "result": "highest overall values for FCD"}, {"measurement": "capillary perfusion quantified through functional capillary density (FCD)", "setting": "LPS-induced cystitis [7]; listed as BCP", "result": "restored perfusion to levels observed in healthy control animals; also recorded: significant improvement in FCD"}, {"measurement": "leukocyte adhesion in bladder venules", "setting": "LPS-induced cystitis [8]; LPS-induced cystitis, oral gavage 100 mg/kg Beta-C (with or without 100 mg/kg MSM) 60 minutes prior to LPS", "result": "significant decrease in the number of adherent leukocytes"}, {"measurement": "capillary perfusion quantified through functional capillary density (FCD)", "setting": "LPS-induced cystitis [8]; LPS-induced cystitis, oral gavage 100 mg/kg Beta-C (with or without 100 mg/kg MSM) 60 minutes prior to LPS, listed as BCP", "result": "no significant differences were observed in the treatment group; also recorded: did not significantly improve FCD"}, {"measurement": "leukocyte adhesion in bladder venules", "setting": "LPS-induced cystitis [8]; [12]", "result": "did not produce any significant changes in leukocyte adherence"}, {"measurement": "capillary perfusion quantified through functional capillary density (FCD)", "setting": "LPS-induced cystitis [8]; [12]", "result": "significant improvement in functional capillary density"}, {"measurement": "capillary perfusion quantified through functional capillary density (FCD)", "setting": "LPS-induced cystitis [8]; healthy animals (no LPS) administered oral Beta-C 100 mg/kg, listed as BCP", "result": "significant improvement in FCD"}]}
{"molecule": "C[S+](C)[O-]", "note": "[DMSO, Dimethyl sulfoxide]", "values": [{"measurement": "treatment failure rate", "setting": "severe IC", "result": "high failure rate"}, {"measurement": "leukocyte adhesion in bladder venules", "setting": "LPS-induced cystitis [9]; FIG. 6", "result": "did not significantly decrease leukocyte adherence"}, {"measurement": "leukocyte rolling in bladder venules", "setting": "LPS-induced cystitis [9]; FIG. 7", "result": "did not show any significant difference when compared to the endotoxemia group"}, {"measurement": "capillary perfusion quantified through functional capillary density (FCD)", "setting": "LPS-induced cystitis [9]; FIG. 8", "result": "did improve perfusion, it did not return perfusion to the levels observed in healthy control animals"}, {"measurement": "leukocyte rolling in bladder venules", "setting": "LPS-induced cystitis [7]", "result": "did not improve leukocyte rolling"}, {"measurement": "leukocyte adhesion in bladder venules", "setting": "LPS-induced cystitis [7]", "result": "retained a high level of activated leukocytes"}, {"measurement": "capillary perfusion quantified through functional capillary density (FCD)", "setting": "LPS-induced cystitis [7]", "result": "did improve perfusion, it did not return perfusion to the levels observed in healthy control animals"}]}
{"molecule": "CS(C)(=O)=O", "note": "[Methylsulfonylmethane]", "values": [{"measurement": "effective treatment, number of patients suffering from IC", "setting": "interstitial cystitis [10]", "result": "4 out of 6"}]}
{"molecule": "CCCCCCCCCCCCCCCC(=O)NCCO", "note": "[PEA, N-palmitoylethanolamide]", "values": [{"measurement": "NGF-induced bladder hyper-reflexia and reduction of micturition threshold", "setting": "[1]", "result": "attenuated"}]}
{"molecule": "pentosan polysulfate [PPS]", "values": [{"measurement": "effect of PPS treatment (proportion of patients)", "setting": "interstitial cystitis [11]", "result": "limited to only a quarter of patients"}]}
